Laboratory results published in PubChem BioAssay AID1648 (Sanford-Burnham Center for Chemical Genomics, 2009).
The source made the active and inactive calls. How the calls were made is not given here.

Target: Serine/threonine-protein kinase mTOR (Homo sapiens) (UniProt P42345)
Test: binders of mTOR FRB domain, biophysical, NMR (AID 1648)
Settings: NMR binding to FRB domain, chemical shift

Serine/threonine-protein kinase mTOR (Homo sapiens), sequence (P42345 2015-2114): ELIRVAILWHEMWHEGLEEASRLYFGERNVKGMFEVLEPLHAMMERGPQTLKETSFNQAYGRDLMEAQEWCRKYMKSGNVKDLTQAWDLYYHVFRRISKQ

SMILES	Kd
Cc1nc2ccc(C(=O)O)cc2nc1C	> 4 mM (inactive)
OCc1ccc(CN2CCOCC2)cc1	> 4 mM (inactive)
COc1ccc(-c2cc(=O)c3c(O)c(OC)c(O[C@H]4O[C@H](CO[C@@H]5O[C@@H](C)[C@H](O)[C@@H](O)[C@H]5O)[C@@H](O)[C@H](O)[C@H]4O)cc3o2)cc1	> 4 mM (inactive)
Cc1sc2nc(SCC(=O)N(C)C)[nH]c(=O)c2c1C	> 4 mM (inactive)
O=c1ccc2cc(O)c(O)cc2o1	> 4 mM (inactive)
O=C1NC(=S)NC(=O)C1=Cc1ccncc1	> 4 mM (inactive)
O=c1[nH]c(O)c(C=NC2CC2)c(=O)[nH]1	> 4 mM (inactive)
CC(=O)c1ccc[nH]1	> 4 mM (inactive)
COC(=O)CC1NC2CCCCC2NC1=O (configuration not stated)	> 4 mM (inactive)
O=C(O)c1ccc2sccc2c1	> 4 mM (inactive)
Cc1ccc(OCC(=O)n2cnnc2N)c(C)c1	> 4 mM (inactive)
CC1(C)O[C@H]2[C@H](O)C[C@](O)(C(N)=O)C[C@H]2O1	> 4 mM (inactive)
O=C(O)CCC(=O)NCc1cccnc1	> 4 mM (inactive)
NC(=O)c1ccsc1N	> 4 mM (inactive)
CC(=O)Nc1ccc(CN2CCOCC2)cc1	> 4 mM (inactive)
CN(C)C(=S)Nc1nc2ccccc2s1	> 4 mM (inactive)
COC(=O)Nc1ccc2ncn(C)c(=O)c2c1	> 4 mM (inactive)
OCn1nnn(-c2ccccc2)c1=S	> 4 mM (inactive)
COc1ccccc1/C=C\C(=O)O	> 4 mM (inactive)
CN(C)C(=O)Oc1cccc(-c2nnco2)c1	> 4 mM (inactive)
COc1ccc2nc(SCC(N)=O)[nH]c2c1	> 4 mM (inactive)
O=C(O)c1coc2c1C(=O)CCC2	> 4 mM (inactive)
Cc1nnc2n(c1=O)N=C(c1ccccc1)CS2	> 4 mM (inactive)
Nc1cc(=O)[nH]c(=S)n1-c1cccc(C(F)(F)F)c1	> 4 mM (inactive)

SMILES	Kd
NCc1ccc2sccc2c1	> 4 mM (inactive)
O=C(Nc1ccccc1[N+](=O)[O-])c1ccc(=O)[nH]n1	> 4 mM (inactive)
C=CCn1c(=S)[nH]c2ccc(Br)cc2c1=O	> 4 mM (inactive)
C#CCCCCCCCCCCCc1ccco1	> 4 mM (inactive)
Cc1nn(CC(=O)Nc2ccccn2)c(=O)c2ccccc12	> 4 mM (inactive)
O=C(O)c1cc(O)c2c(c1)C(=O)c1cc(O)cc(O)c1C2=O	> 4 mM (inactive)
COc1c2ccoc2c(OC)c2oc(=O)ccc12	> 4 mM (inactive)
Cc1cc(=O)cc(C)n1NC(N)=S	> 4 mM (inactive)
CCN1CCC(NC2CCCCNC2=O)CC1 (configuration not stated)	> 4 mM (inactive)
Nc1ccc2c(c1)OCCO2	> 4 mM (inactive)
C=CC(C1=CC(=O)C=CC1=O)c1ccccc1 (configuration not stated)	> 4 mM (inactive)
O=C(O)c1ccc(-n2ccnc2)cc1	> 4 mM (inactive)
COc1ccc2nc(N)sc2c1	> 4 mM (inactive)
Cc1oc(S(=O)(=O)N2CCCCC2)cc1C(=O)O	> 4 mM (inactive)
Cc1cc(O)c(C)c(O)c1C(=O)O	> 4 mM (inactive)
Cc1ccc(SCC(=O)N2CCOCC2)cc1	> 4 mM (inactive)
CC(C)C1COc2cc3oc(=O)ccc3cc2O1 (configuration not stated)	> 4 mM (inactive)
Cc1nc2nc(Cc3ccccc3)[nH]n2c(=O)c1Cl	> 4 mM (inactive)
CC12CN([N+](=O)[O-])C3(C(N)=O)CC1CCC23C (configuration not stated)	> 4 mM (inactive)
N[C@@H](Cc1cc(I)c(Oc2cc(I)c(O)c(I)c2)c(I)c1)C(=O)O	> 4 mM (inactive)
O=C(O)c1cccnc1N1CCCC1	> 4 mM (inactive)
O=C1CC(=O)N(c2ccccc2F)C(=S)N1	> 4 mM (inactive)
O=S1(=O)NC(=NCc2ccco2)c2ccccc21	> 4 mM (inactive)
COc1cc([C@@H]2c3cc4c(c(O)c3C[C@H]3COC(=O)[C@@H]32)OCO4)cc(OC)c1OC	> 4 mM (inactive)

SMILES	Kd
O=C1NC(=O)/C(=C\c2ccco2)S1	> 4 mM (inactive)
CC[C@H](CCC(C)[C@H]1CCC2C3CCC4C[C@@H](O)CC[C@]4(C)C3CC[C@@]21C)C(C)C (some centres not stated)	> 4 mM (inactive)
Cc1ccnc(NS(=O)(=O)c2cccs2)c1	> 4 mM (inactive)
O=C(O)C1(O)C[C@@H](O)C(O)[C@H](O)C1 (some centres not stated)	> 4 mM (inactive)
OCCOc1ccc(C2=NCCO2)cc1	> 4 mM (inactive)
CC(C)NS(=O)(=O)c1ccc(N)cc1	> 4 mM (inactive)
NC(=O)c1ccc(N2CCCCC2)c(N)c1	> 4 mM (inactive)
COc1ccc2c(c1)O[C@@H]1COc3cc(OC)c(OC)cc3[C@@H]1C2=O	> 4 mM (inactive)
CC(C)(O)[C@@H]1Cc2cc3ccc(=O)oc3cc2O1	> 4 mM (inactive)
O=C(O)CN1CCN(C2CCCC2)CC1	> 4 mM (inactive)
O=C(NN1C(=O)CSC1=S)c1ccccc1	> 4 mM (inactive)
CC(=O)OCC[C@H](C)CCC=C(C)C	> 4 mM (inactive)
O=C(NCc1ccccc1F)c1cccs1	> 4 mM (inactive)
COc1ncccc1N	> 4 mM (inactive)
Cc1cc(C)nc(NC(N)=NCc2ccco2)n1	> 4 mM (inactive)
CC(=O)Oc1ccc2c(c1)c(C(C)=O)c(C)n2C	> 4 mM (inactive)
COC(=O)[C@@H]1C(O)CC[C@H]2CN3CCc4c([nH]c5ccccc45)[C@@H]3C[C@@H]21 (some centres not stated)	> 4 mM (inactive)
Nc1nncn1C(=O)c1c(Cl)cccc1Cl	> 4 mM (inactive)
CCC(=O)NC(=S)Nc1ccc(N2CCOCC2)cc1	> 4 mM (inactive)
Cc1ccc(-c2nc(-c3cccnc3)no2)c(C)c1	> 4 mM (inactive)
COc1c(-c2coc3cc4c(cc3c2=O)CC(OC(C)=O)C(C)(C)O4)ccc2c1C=CC(C)(C)O2 (configuration not stated)	> 4 mM (inactive)
Cc1cc(C(=O)Nn2cnnc2)cs1	> 4 mM (inactive)
Cc1cc(=O)cc(C)n1-c1ccccc1N	> 4 mM (inactive)
NC1=NC(=O)/C(=C\c2ccccc2)S1	> 4 mM (inactive)

SMILES	Kd
CC1CCC2(OC1)OC1CC3C4CCC5C[C@@H](O)CCC5(C)C4=CCC3(C)C1[C@@H]2C (some centres not stated)	> 4 mM (inactive)
Cc1nn(C)c(Cl)c1C(O)c1c(C)nn(C)c1Cl	> 4 mM (inactive)
CN1CCN(CC(O)c2ccccc2)CC1 (configuration not stated)	> 4 mM (inactive)
C=C1C(=O)O[C@@H]2C3OC3(C)CC/C=C(\C)CC[C@@H]12 (some centres not stated)	> 4 mM (inactive)
Nc1cccc(F)c1-c1ncon1	> 4 mM (inactive)
COC(=O)C[C@@H]1C2(C)C(=O)[C@@H](CC3=C4C=C(OC)O[C@@H](c5ccoc5)[C@]4(C)CCC32)[C@H](O)C1(C)C (some centres not stated)	> 4 mM (inactive)
Cc1cc2ncc(C(=O)O)c(C)n2n1	> 4 mM (inactive)
CC(C)=CCc1c2c(c3occ(-c4ccc(O)c(O)c4)c(=O)c3c1O)C=CC(C)(C)O2	> 4 mM (inactive)
CSc1ccccc1NC(=O)c1cnccn1	> 4 mM (inactive)
CC(=O)N1CCn2c3c(c(=O)c4cc(C)ccc42)CCC31 (configuration not stated)	> 4 mM (inactive)
CC1=NNC(=O)C1CCc1ccncc1 (configuration not stated)	> 4 mM (inactive)
O=C(O)CCc1ccc2c(c1)OCO2	> 4 mM (inactive)
O=C1C(=O)N(CNc2ncccn2)c2ccccc21	> 4 mM (inactive)
O=C(Nc1cccnc1)c1cccs1	> 4 mM (inactive)
c1ccc(-c2csc3ncn4nnnc4c23)cc1	> 4 mM (inactive)
CC1(C)CC2C1CCC1(C)OC1CCC2(C)O (configuration not stated)	> 4 mM (inactive)
Cc1n[nH]c(=O)c2ncn(C)c12	> 4 mM (inactive)
CC(=O)Nn1cc2c(=O)n(C)c(=O)n(C)c2c1	> 4 mM (inactive)
Cc1cccc(-n2c(N)cc(=O)[nH]c2=S)c1	> 4 mM (inactive)
S=C(c1ccc(N2CCOCC2)cc1)N1CCCCC1	> 4 mM (inactive)
Cc1occc1C(=O)Nc1cc(C(C)(C)C)on1	> 4 mM (inactive)
CC(=O)NCCc1cc2ccc(C)c(C)c2[nH]c1=O	> 4 mM (inactive)
COC(=O)c1cccc(Cn2nnc3ccccc3c2=O)c1	> 4 mM (inactive)
Nc1cccc(S(=O)(=O)N2CCOCC2)c1	> 4 mM (inactive)

SMILES	Kd
CCOc1ccc2nc(NS(C)(=O)=O)sc2c1	> 4 mM (inactive)
Cc1[nH]c2ccccc2c1C=Nn1cncn1	> 4 mM (inactive)
Cc1oc(-c2ccccc2)cc1C(=O)O	> 4 mM (inactive)
Nc1cc(C(=O)O)ccc1N1CCCCCC1	> 4 mM (inactive)
CCCCCCCCCCCCCCC(C(=O)O)C(O)(CC(=O)OC)C(=O)O (configuration not stated)	> 4 mM (inactive)
Cc1[nH]c2ccccc2c1CN(C)C	> 4 mM (inactive)
O=C(Nc1ccon1)c1cccc(C(F)(F)F)c1	> 4 mM (inactive)
Nc1ccc(Cc2ccc(N)cc2)cc1	> 4 mM (inactive)
N#CC(O[C@@H]1O[C@H](CO[C@@H]2O[C@H](CO)[C@@H](O)[C@H](O)[C@H]2O)[C@@H](O)[C@H](O)[C@H]1O)c1ccccc1 (some centres not stated)	> 4 mM (inactive)
CC1O[C@@H](Oc2c(-c3ccc(O)c(O)c3)oc3cc(O)cc(O)c3c2=O)[C@H](O)[C@H](O)[C@H]1O (some centres not stated)	> 4 mM (inactive)
C/C=C(\C)C(=O)O[C@@H]1c2c(ccc3ccc(=O)oc23)OC(C)(C)[C@@H]1OC(C)=O	> 4 mM (inactive)
CC(=O)Nc1cccc(-c2nnc(-c3ccccc3)o2)c1	> 4 mM (inactive)
NS(=O)(=O)c1ccc(N=C2NC(=O)CS2)cc1	> 4 mM (inactive)
COC(=O)c1c(C)c2c(c(C)c1O)OC(=O)c1c(C)c(Cl)c(O)c(Cl)c1O2	> 4 mM (inactive)
Cc1ccc(-c2nc(-c3cccnc3)no2)cc1	> 4 mM (inactive)
O=C1C=CC2=C3c4cc(O)c(O)cc4CC3(O)COC2=C1O (configuration not stated)	> 4 mM (inactive)
Cn1c(=O)n(C)c2nc([N+](=O)[O-])c(Cl)cc21	> 4 mM (inactive)
COCCn1c(C)cc(O)cc1=O	> 4 mM (inactive)
O=C1CSC(=S)N1N1C(=O)C2C3C=CC(C3)C2C1=O (configuration not stated)	> 4 mM (inactive)
Cn1ncc(C(=O)O)c1-c1ccccc1	> 4 mM (inactive)
O=C(O)c1ccc(CN2CCOCC2)cc1	> 4 mM (inactive)
